Here are results for 28 compounds from EP2951180B1, “2,6,7,8 SUBSTITUTED PURINES AS HDM2 INHIBITORS” (Merck Sharp & Dohme Corp., priority 2013, dated 2014).

Broadly, the IC50 is the concentration that gives 50% inhibition.

Each structure is given as a SMILES string.

This assay deals with T1, HDM2 (Homo sapiens, UniProt Q00987).
T1 construct: Thioredoxin (N); made in house; host or cells: E. coli strain BL21(DE3)Rosetta
As to the kind of experiment: FRET assay (HDM2 inhibition; method not described in this part). In kind it is binding.

T1 sequence (Q00987 17-125): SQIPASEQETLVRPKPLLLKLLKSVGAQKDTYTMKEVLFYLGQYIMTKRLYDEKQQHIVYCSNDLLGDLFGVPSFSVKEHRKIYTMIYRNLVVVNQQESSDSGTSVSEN

For the compound `Cc1cccc(-c2nc3nc(C(=O)O)nc(N[C@H](C)C4CCC4)c3n2Cc2ccc(C(F)(F)F)cc2)c1` [Example 2.11, 6-{[(1R)-1-cyclobutylethyl]amino}-8-(3-methylphenyl)-7-[4-(trifluoromethyl)benzyl]-7H-purine-2-carboxylic acid], for the setting “Table 2”, the half-inhibitory concentration (IC50) came to 36.6 nM.

In the case of `COc1ncc(-c2nc3nc(C(=O)O)nc(N[C@H](C)C4CCC4)c3n2Cc2ccc(C(F)(F)F)cc2)cc1Cl` [Example 2.46, 8-(5-chloro-6-methoxypyridin-3-yl)-6-{[(1R)-1-cyclobutylethyl]amino}-7-[4-(trifluoromethyl)benzyl]-7H-purine-2-carboxylic acid], the half-inhibitory concentration (IC50) (Table 2) stood at 51 nM. Still for that read-out and setting: as for `CC(C)c1cccc(-c2nc3nc(C(=O)O)nc(N[C@H](C)C4CCC4)c3n2Cc2ccc(C(F)(F)F)cc2)c1` [Example 2.24, 6-{[(1R)-1-cyclobutylethyl]amino}-8-[3-(1-methylethyl)phenyl]-7-[4-(trifluoromethyl)benzyl]-7H-purine-2-carboxylic acid], the figure is 14.7 nM. For `C[C@@H](Nc1nc(C(=O)O)nc2nc(-c3cnn(C)c3)n(Cc3ccc(C(F)(F)F)cc3)c12)C1CCC1` [Example 2.83, 6-{[(1R)-1-cyclobutylethyl]amino} -8-(1-methyl-1H-pyrazol-4-yl)-7-[4-(trifluoromethyl)benzyl] - 7H-purine-2-carboxylic acid], the 50% inhibitory concentration (IC50) (Table 2) is 189 nM.

Compound `C[C@@H](Nc1nc(C(=O)O)nc2nc(-c3ccc(Cl)c(Cl)c3)n(Cc3ccc(C(F)(F)F)cc3)c12)C1CCC1` [Example 2.76, 6-{[(1R)-1-cyclobutylethyl]amino}-8-(3,4-dichlorophenyl)-7-[4-(trifluoromethyl)benzyl]-7H-purine-2-carboxylic acid] gave an IC50 (Table 2) of 20.4 nM. Against the preceding compound, the IC50 is about 9.3-fold lower. `CCOc1ccc(-c2nc3nc(C(=O)O)nc(N[C@H](C)C4CC4)c3n2Cc2ccc(C(F)(F)F)cc2)cn1` [Example 2.72, 6-{[(1R)-1-cyclopropylethyl]amino}-8-(6-ethoxypyridin-3-yl)-7-[4-(trifluoromethyl)benzyl]-7H-purine-2-carboxylic acid]: for the setting “Table 2”, the IC50 came to 613 nM. On to `CC(C)Oc1cccc(-c2nc3nc(C(=O)O)nc(N[C@H](C)C4CCC4)c3n2Cc2ccc(C(F)(F)F)cc2)c1` [Example 1.127, 6-{[(1R)-1-cyclobutylethyl]amino}-8-[3-(1-methylethoxy)phenyl]-7-[4-(trifluoromethyl)benzyl]-7H-purine-2-carboxylic acid], for which the IC50 (Table 1) was found to be 38.7 nM. The same measure, in the same setting: as for `CC(C)c1ccc(O)c(-c2nc3nc(C(=O)O)nc(N[C@H](C)C4CCC4)c3n2Cc2ccc(C(F)(F)F)cc2)c1` [Example 1.11, (R)-6-((1-cyclobutylethyl)amino)-8-(2-hydroxy-5-isopropylphenyl)-7-(4-(trifluoromethyl)benzyl)-7H-purine-2-carboxylic acid], the figure is 50.3 nM; as for `CC(C)c1ccc(OC(F)(F)F)c(-c2nc3nc(C(=O)O)nc(N[C@H](C)C4CCC4)c3n2Cc2ccc(OC(F)(F)F)c(F)c2)c1` [Example 1.83, 6-{[(1R)-1-cyclobutylethyl]amino}-7-[3-fluoro-4-(trifluoromethoxy)benzyl]-8-[5-(1-methylethyl)-2-(trifluoromethoxy)phenyl]-7H-purine-2-carboxylic acid], 23.2 nM. Regarding `Cc1cccc(-c2nc3nc(C(=O)O)nc(N[C@H](C)C4CCC4)c3n2Cc2ccc(C(F)(F)F)cc2)c1C` [Example 1.126, 6-{[(1R)-1-cyclobutylethyl]amino}-8-(2,3-dimethylphenyl)-7-[4-(trifluoromethyl)benzyl]-7H-purine-2-carboxylic acid], under “Table 1”, the IC50 was 18 nM.

As to `C[C@@H](Nc1nc(C(=O)O)nc2nc(-c3cccc(Cl)c3)n(Cc3ccc(C(F)(F)F)cc3)c12)C1CC1` [Example 2.22, 8-(3-chlorophenyl)-6-{[(1R)-1-cyclopropylethyl]amino}-7-[4-(trifluoromethyl)benzyl]-7H-purine-2-carboxylic acid], the concentration for half-maximal inhibition (IC50) (Table 2) turned out to be 124 nM. `C[C@@H](Nc1nc(C(=O)O)nc2nc(-c3cc(CCC(C)(C)C)ccn3)n(Cc3ccc(C(F)(F)F)cc3)c12)C1CCC1` [Example 1.88, 6-{[(1R)-1-cyclobutylethyl]amino}-8-[4-(3,3-dimethylbutyl)pyridin-2-yl]-7-[4-(trifluoromethyl)benzyl]-7H-purine-2-carboxylic acid] displayed an IC50 (Table 1) of 19.6 nM. The same measure, in the same setting: as for `C[C@@H](Nc1nc(C(=O)O)nc2nc(-c3cc(C(F)(F)F)ccn3)n(Cc3ccc(C(F)(F)F)cc3)c12)C1CCC1` [Example 1.60, 6-{[(1R)-1-cyclobutylethyl]amino}-7-[4-(trifluoromethyl)benzyl] - 8-[4-(trifluoromethyl)pyridin-2-yl]-7H-purine-2-carboxylic acid], the figure is 15.2 nM. On the same count and under the same terms, with `Cc1cnc(-c2nc3nc(C(=O)O)nc(N[C@H](C)C4CCC4)c3n2Cc2ccc(OC(F)(F)F)c(F)c2)cc1C(C)C` [Example 1.90, 6-{[(1R)-1-cyclobutylethyl]amino}-7-[3-fluoro-4-(trifluoromethoxy)benzyl]-8-[5-methyl-4-(1-methylethyl)pyridin-2-yl]-7H-purine-2-carboxylic acid] the figure was 24.7 nM; with `C[C@@H](Nc1nc(C(=O)O)nc2nc(-c3ccc4c(c3)OCCN4C)n(Cc3ccc(C(F)(F)F)cc3)c12)C1CCC1` [Example 1.125, 6-{[(1R)-1-cyclobutylethyl]amino}-8-(4-methyl-3,4-dihydro-2H-1,4-benzoxazin-7-yl)-7-[4-(trifluoromethyl)benzyl]-7H-purine-2-carboxylic acid], 116 nM. Under “Table 2”, `COc1ccc(-c2nc3nc(C(=O)O)nc(N[C@H](C)C4CC4)c3n2Cc2ccc(C(F)(F)F)cc2)cc1` [Example 2.21, 6-{[(1R)-1-cyclopropylethyl]amino}-8-(4-methoxyphenyl)-7-[4-(trifluoromethyl)benzyl]-7H-purine-2-carboxylic acid] returned a half-maximal inhibitory concentration (IC50) of 253 nM.

Regarding `Cc1ccc(OCCC(=O)NCCO)c(-c2nc3nc(C(=O)O)nc(N[C@H](C)C4CC4)c3n2Cc2ccc(Cl)cc2)c1` [Example 4.12, (R)-7-(4-chlorobenzyl)-6-((1-cyclopropylethyl)amino)-8-(2-(3-((2-hydroxyethyl)amino)-3-oxopropoxy)-5-methylphenyl)-7H-purine-2-carboxylic acid], the IC50 (Table 4) was determined as 348 nM.

The compound `C[C@@H](Nc1nc(C(=O)O)nc2nc(-c3cccc(Cl)c3)n(Cc3ccc(Cl)cc3)c12)C1CC1` [Example 2.5, 7-(4-chlorobenzyl)-8-(3-chlorophenyl)-6-{[(1R)-1-cyclopropylethyl]amino}-7H-purine-2-carboxylic acid] returned an IC50 (Table 2) of 218 nM. This lies in the sub-micromolar range.

In turn, `Cc1cccc(-c2nc3nc(C(=O)O)nc(N[C@H](C)C4CC4)c3n2Cc2ccccc2C(F)(F)F)c1` [Example 5.16, 6-{[(1R)-1-cyclopropylethyl]amino}-8-(3-methylphenyl)-7-[2-(trifluoromethyl)benzyl]-7H-purine-2-carboxylic acid] showed an IC50 (Table 5) of 8330 nM.

`C[C@@H](Nc1nc(C(=O)O)nc2nc(-c3nccn3C)n(Cc3ccc(C(F)(F)F)cc3)c12)C1CCC1` [Example 3.1, (R)-6-((1-cyclobutylethyl)amino)-8-(1-methyl-1H-imidazol-2-yl)-7-(4-(trifluoromethyl)benzyl)-7H-purine-2-carboxylic acid] came in with an IC50 (Table 3) of 161 nM. `C[C@@H](Nc1nc(C(=O)O)nc2nc(-c3ccc(Cl)cc3)n(Cc3ccc(Cl)cc3)c12)C1CC1` [Example 2.9, 7-(4-chlorobenzyl)-8-(4-chlorophenyl)-6-{[(1R)-1-cyclopropylethyl]amino}-7H-purine-2-carboxylic acid] displayed an IC50 (Table 2) of 43.8 nM. The compound `CC(C)Cc1ccnc(-c2nc3nc(C(=O)O)nc(N[C@H](C)C4CCC4)c3n2Cc2ccc(C(F)(F)F)cc2)c1` [Example 1.85, 6-{[(1R)-1-cyclobutylethyl]amino}-8-[4-(2-methylpropyl)pyridin-2-yl]-7-[4-(trifluoromethyl)benzyl]-7H-purine-2-carboxylic acid] had an IC50 (Table 1) of 9.69 nM.

The compound `COc1ccc(C(F)(F)F)cc1-c1nc2nc(C(=O)O)nc(N[C@H](C)C3CCC3)c2n1Cc1ccc(C(F)(F)F)cc1` [Example 1.35, 6-{[(1R)-1-cyclobutylethyl]amino}-8-[2-methoxy-5-(trifluoromethyl)phenyl]-7-[4-(trifluoromethyl)benzyl] - 7H-purine-2-carboxylic acid] registered an IC50 (Table 1) of 27.8 nM. Against the preceding compound, the IC50 is about 2.9-fold higher.

Consider `Cc1ccc(OCCCN2CCN(C)CC2)c(-c2nc3nc(C(=O)O)nc(N[C@H](C)C4CC4)c3n2Cc2ccc(Cl)cc2)c1` [Example 4.17, (R)-7-(4-chlorobenzyl)-6-(1-cyclopropylethylamino)-8-(5-methyl-2-(3-(4-methylpiperazin-1-yl)propoxy)phenyl)-7H-purine-2-carboxylic acid], for which the IC50 (Table 4) was 507 nM.

Turning to `C[C@@H](Nc1nc(C(=O)O)nc2nc(-c3cc(Cl)ccn3)n(Cc3ccc(C(F)(F)F)cc3)c12)C1CCC1` [Example 1.44, 8-(4-chloropyridin-2-yl)-6-{[(1R)-1-cyclobutylethyl]amino}-7-[4-(trifluoromethyl)benzyl] - 7H-purine-2-carboxylic acid], the midpoint of inhibition (Table 1), the IC50, lay at 16.5 nM.

In turn, `CC(O)c1ccnc(-c2nc3nc(C(=O)O)nc(N[C@H](C)C4CCC4)c3n2Cc2ccc(C(F)(F)F)cc2)c1` (stereo partly drawn) [Example 1.28, 6-{[(1R)-1-cyclobutylethyl]amino}-8-[4-(1-hydroxyethyl)pyridin-2-yl]-7-[4-(trifluoromethyl)benzyl]-7H-purine-2-carboxylic acid] returned an IC50 (Table 1) of 12.4 nM. The IC50 values of the last two compounds are within 1.5-fold of each other. Same read-out and setting: as for `CC(C)c1ccnc(-c2nc3nc(C(=O)O)nc(N[C@H](C)C4CCC4)c3n2Cc2ccc(Cl)c(F)c2)c1` [Example 1.6, 7-(4-chloro-3-fluorobenzyl)-6-{[(1R)-1-cyclobutylethyl]amino}-8-[4-(propan-2-yl)pyridin-2-yl]-7H-purine-2-carboxylic acid], the figure is 2.79 nM; as for `COc1ccc(-c2nc3nc(C(=O)O)nc(N[C@H](C)C4CCC4)c3n2Cc2ccc(C(F)(F)F)cc2)cc1C` [Example 1.105, 6-{[(1R)-1-cyclobutylethyl]amino}-8-(4-methoxy-3-methylphenyl)-7-[4-(trifluoromethyl)benzyl]-7H-purine-2-carboxylic acid], 16.5 nM.
